This passage reports MIC results from patent US20140243302A1, “BRIDGED BICYCLIC COMPOUNDS FOR THE TREATMENT OF BACTERIAL INFECTIONS” (priority 2011, published 2014).

The assay has as its system Staphylococcus aureus Smith. The assay is described as follows: MIC assay, modified agar dilution (CLSI), S. aureus Smith. It is filed as cell-based. The settings on record: Staphylococcus aureus, agar dilution, 35° C., 16-20 hr; lowest concentration that completely inhibited growth; read-out: S_aureus_Smith_WT_MIC. How it is done: The potency of antibacterial agents was measured using the Minimal Inhibitory Concentration (MIC) assay. The assay measures the ability of test agents to inhibit the growth of bacteria on agar-containing medium.
The bacterial test strains used were exemplified by Staphylococcus aureus Smith, Enterococcus faecium A2373, Streptococcus pneumoniae IID554, and Escherichia coli ATCC 25922. All strains were maintained as frozen stocks held at −80° C. in skim milk. Other bacterial test strains are well known to those skilled in the art and can be used for testing.
Mueller Hinton Agar (MHA BBL; Becton Dickinson and Company, Sparks, Md.) was used as the medium. MHA was supplemented with 5% defibrinated horse blood (DHB; Nippon Biotest Laboratories inc.) to support the growth of S. pneumoniae and E. faecium.
MIC values were determined using a modified agar dilution procedure described by the Clinical and Laboratory Standards Institute (CLSI; Methods for Dilution Antimicrobial Susceptibility Tests for Bacteria That Grow Aerobically; Approved Standard—Eighth Edition. CLSI document M07-A8 [ISBN 1-56238-689-1]. Clinical and Laboratory Standards Institute, 940 West Valley Road, Suite 1400, Wayne, Pa. 19087-1898 USA, 2009).
Stock solutions (6.4 mgmL) of test compounds were prepared in 100% ultrapure dimethyl sulfoxide (DMSO; source) on the day of the assay. Subsequent serial dilutions were performed to generate solutions with concentrations ranging from 6.4 to 0.0002 mgmL in 100% DMSO.
Agar medium containing test compound was prepared by adding the dilutions of antimicrobial solution to molten MHA at a temperature of 45-50° C. The agar and antimicrobial solution were mixed thoroughly, poured into petri dishes, and allowed to solidify at room temperature. The final concentration of test compounds in the MHA medium ranged from 128 to 0.001 μg/mL with two-fold dilutions. MHA plates lacking antibacterial compound were used for growth controls.
Prior to susceptibility testing, the bacterial isolates were removed from frozen storage, thawed at room temperature, sub-cultured to MHA medium and incubated overnight at 35° C. S. pneumoniae and E. faecium were subcultured on MHA supplemented with 5% DHB at 35° C. with […]. Colonies from each plate were suspended in normal saline. This suspension was adjusted to the turbidity of a 0.5 McFarland standard, 1-2×10^8 colony forming units (CFU) per mL, and diluted 100-fold to 1-2×10^6 CFUmL.
Suspensions of bacterial cultures were applied to the surface of MHA plates containing test compound as well as to a growth control plate lacking test compound using an inoculum-replicating device with 4 mm pins. The replicating device applied 5 uL of the bacterial suspension such that each spot contained approx. 1×10^4 CFU. Plates were dried for about 40 min and incubated at 35° C. for 16-20 hr prior to scoring.

In brackets after ≈: the same amount, converted by molar mass. Where a name gives a salt, the structure may show the parent alone. Bounds are passed on as bounds.

Take `COc1ccc2ncc(F)c(CCC34CCC(NC/C=C/c5cc(F)ccc5F)(CC3)CO4)c2n1` [Example 188, (E)-N-(3-(2,5-Difluorophenyl)allyl)-1-(2-(3-fluoro-6-methoxy-1,5-naphthyridin-4-yl)ethyl)-2-oxabicyclo[2.2.2]octan-4-amine]: the MIC came out at 0.016 µg/mL (≈ 0.0331 µM).

In the case of `Cc1nccc2c1ccc(=O)n2CCC12CCC(NCc3ccc4c(n3)NC(=O)CO4)(CC1)CO2` [Example 110, 6-((1-(2-(5-Methyl-2-oxo-1,6-naphthyridin-1(2H)-yl)ethyl)-2-oxabicyclo[2.2.2]octan-4-ylamino)methyl)-2H-pyrido[3,2-b][1,4]oxazin-3(4H)-one], the MIC amounted to 4 µg/mL (≈ 8.41 µM).

As to `COc1ccc2ncc(F)c(CCC34CCC(NCc5nc6cccnc6n(C)c5=O)(CC3)CO4)c2n1.Cl` [Example 108, 2-((1-(2-(3-Fluoro-6-methoxy-1,5-naphthyridin-4-yl)ethyl)-2-oxabicyclo[2.2.2]octan-4-ylamino)methyl)-4-methylpyrido[3,2-b]pyrazin-3(4H)-one Hydrochloride], the MIC is greater than 8 µg/mL.

As to `COc1ccc2ncc(Cl)c(/C=C\C34CCC(NCc5ccc6c(n5)NC(=O)CO6)(CC3)CC4)c2n1` [Example 8, (Z)-6-((4-(2-(3-Chloro-6-methoxy-1,5-naphthyridin-4-yl)vinyl)bicyclo[2.2.2]octan-1-ylamino)methyl)-2H-pyrido[3,2-b][1,4]oxazin-3(4H)-one], the MIC came out at 0.5 µg/mL (≈ 0.988 µM).

For the compound `COc1cc(C)c2ncc(F)c(CCC34CCC(NCc5ccc6c(n5)NC(=O)CO6)(CC3)CO4)c2n1.Cl` [Example 191, 6-((1-(2-(3-Fluoro-6-methoxy-8-methyl-1,5-naphthyridin-4-yl)ethyl)-2-oxabicyclo[2.2.2]octan-4-ylamino)methyl)-2H-pyrido[3,2-b][1,4]oxazin-3(4H)-one Hydrochloride], the MIC came to 0.016 µg/mL.

As for `COc1ccc2ncc(N)c(CCC34CCC(NCc5ccc6c(n5)NC(=O)CO6)(CC3)CC4)c2n1.Cl` [Example 3, 6-((4-(2-(3-Amino-6-methoxy-1,5-naphthyridin-4-yl)ethyl)bicyclo[2.2.2]octan-1-ylamino)methyl)-2H-pyrido[3,2-b][1,4]oxazin-3(4H)-one Hydrochloride], the MIC turned out to be 0.25 µg/mL.

Take `COc1ccc2ncc(F)c(CC(N)C34CCC(NCc5ccc6c(n5)NC(=O)CO6)(CC3)CO4)c2n1` (single isomer, unassigned) [Example 21a, 6-((1-(1-Amino-2-(3-fluoro-6-methoxy-1,5-naphthyridin-4-yl)ethyl)-2-oxabicyclo[2.2.2]octan-4-ylamino)methyl)-2H-pyrido[3,2-b][1,4]oxazin-3(4H)-one Dihydrochloride]: the MIC came out at 0.25 µg/mL.

Turning to `NCCCOc1ccc2ncc(F)c(CCC34CCC(NCc5ccc6c(n5)NC(=O)CO6)(CC3)CO4)c2n1` [Example 38, 6-((1-(2-(6-(3-Aminopropoxy)-3-fluoro-1,5-naphthyridin-4-yl)ethyl)-2-oxabicyclo[2.2.2]octan-4-ylamino)methyl)-2H-pyrido[3,2-b][1,4]oxazin-3(4H)-one], the MIC is 0.25 µg/mL (≈ 0.466 µM).

As to `COc1ccc2ncc(F)c(CCC34CCC(NC/C=C/c5ccccn5)(CC3)CO4)c2n1` [Example 193, (E)-1-(2-(3-Fluoro-6-methoxy-1,5-naphthyridin-4-yl)ethyl)-N-(3-(pyridin-2-yl)allyl)-2-oxabicyclo[2.2.2]octan-4-amine], the MIC is 0.031 µg/mL (≈ 0.0691 µM).

Turning to `COc1ccc2ncc(F)c(CCC34CCC(NS(=O)(=O)c5ccc(C)c(F)c5)(CC3)CO4)c2n1` [Example 71, 3-Fluoro-N-(1-(2-(3-fluoro-6-methoxy-1,5-naphthyridin-4-yl)ethyl)-2-oxabicyclo[2.2.2]octan-4-yl)-4-methylbenzenesulfonamide], the MIC stood at 1 µg/mL (≈ 1.99 µM).

Take `COc1cnc2ccc(=O)n(CCC34CCC(NCc5ccc6c(n5)NC(=O)CO6)(CC3)CO4)c2c1` [Example 120, 6-(((1-(2-(7-Methoxy-2-oxo-1,5-naphthyridin-1(2H)-yl)ethyl)-2-oxabicyclo[2.2.2]octan-4-yl)amino)methyl)-2H-pyrido[3,2-b][1,4]oxazin-3(4H)-one]: the MIC stood at 0.016 µg/mL (≈ 0.0326 µM).

Turning to `COc1ccc2ncc(F)c(CCC34CCC(NCc5ccc(N6CCCCC6)nc5)(CC3)CO4)c2n1` [Example 84, 1-(2-(3-Fluoro-6-methoxy-1,5-naphthyridin-4-yl)ethyl)-N-((6-(piperidin-1-yl)pyridin-3-yl)methyl)-2-oxabicyclo[2.2.2]octan-4-amine], the MIC is 0.25 µg/mL (≈ 0.494 µM).

For `COc1ccc2ncc(F)c(CCC34CCC(NCc5ccc6c(n5)N(C)C(=O)CO6)(CC3)CO4)c2n1` [Example 101, 6-((1-(2-(3-Fluoro-6-methoxy-1,5-naphthyridin-4-yl)ethyl)-2-oxabicyclo[2.2.2]octan-4-ylamino)methyl)-4-methyl-2H-pyrido[3,2-b][1,4]oxazin-3(4H)-one], the MIC was 2 µg/mL (≈ 3.94 µM).

Turning to `COc1ccc2ncc(OC)c(CCC34CCC(NCc5ccc6c(n5)NC(=O)CO6)(CC3)CO4)c2n1` [Example 50, 6-[({1-[2-(3,6-Dimethoxy-1,5-naphthyridin-4-yl)ethyl]-2-oxabicyclo[2.2.2]oct-4-yl}amino)methyl]-2H-pyrido[3,2-b][1,4]oxazin-3(4H)-one], the MIC is 0.125 µg/mL (≈ 0.247 µM).

Take `COc1ccc2ncc(F)c(CCC34CCC(NCc5ccc6c(n5)NS(=O)(=O)CO6)(CC3)CO4)c2n1` [Example 163, 7-((1-(2-(3-Fluoro-6-methoxy-1,5-naphthyridin-4-yl)ethyl)-2-oxabicyclo[2.2.2]octan-4-ylamino)methyl)-1H-pyrido[2,3-e][1,3,4]oxathiazine-2,2-dioxide]: the MIC was 4 µg/mL (≈ 7.55 µM).

With `COc1ccc2ncc(F)c(CCC34CCC(NCc5nc6ccccc6n(C)c5=O)(CC3)CO4)c2n1` [Example 24, 3-((1-(2-(3-Fluoro-6-methoxy-1,5-naphthyridin-4-yl)ethyl)-2-oxabicyclo[2.2.2]octan-4-ylamino)methyl)-1-methylquinoxalin-2(1H)-one], the MIC was 4 µg/mL (≈ 7.94 µM).

`COC(=O)[C@H]1C[C@H]1COc1ccc2ncc(F)c(CCC34CCC(NCc5ccc6c(n5)NC(=O)CO6)(CC3)CO4)c2n1` (single isomer, unassigned; enantiomer b) [Example 228, Methyl 2-((7-Fluoro-8-(2-(4-((3-oxo-3,4-dihydro-2H-pyrido[3,2-b][1,4]oxazin-6-yl)methylamino)-2-oxabicyclo[2.2.2]octan-1-yl)ethyl)-1,5-naphthyridin-2-yloxy)methyl)cyclopropanecarboxylate (Enantiomer B)]: the MIC was 0.25 µg/mL (≈ 0.423 µM).

For `COc1cc(C)c2ncc(F)c(CC(O)C34CCC(NCc5ccc6c(n5)NC(=O)CO6)(CC3)CO4)c2c1` (stereo not shown) [Example 140, 6-[({1-[2-(3-Fluoro-6-methoxy-8-methylquinolin-4-yl)-1-hydroxyethyl]-2-oxabicyclo[2.2.2]oct-4-yl}amino)methyl]-2H-pyrido[3,2-b][1,4]oxazin-3(4H)-one], the MIC came out at 0.063 µg/mL (≈ 0.121 µM).

Regarding `COc1ccc2ncc(F)c(C[C@H](O)C34CCC(NCc5cc6c(cn5)OCCO6)(CC3)CC4)c2n1.Cl` (single isomer, unassigned) [Example 201], the MIC was 0.06 µg/mL.

`COc1ccc2nc(CNC34CCC(CCc5c(Cl)cnc6ccc(OC)nc56)(CC3)CC4)ccc2c1` [Example 57, 4-(2-(3-Chloro-6-methoxy-1,5-naphthyridin-4-yl)ethyl)-N-((6-methoxyquinolin-2-yl)methyl)bicyclo[2.2.2]octan-1-amine]: the MIC amounted to 4 µg/mL (≈ 7.74 µM).

Take `COc1ccc2ncc(Cl)c(/C=C/C34CCC(NCc5ccc6c(n5)NC(=O)CO6)(CC3)CC4)c2n1.Cl` [Example 10, (E)-6-((4-(2-(3-Chloro-6-methoxy-1,5-naphthyridin-4-yl)vinyl)bicyclo[2.2.2]octan-1-ylamino)methyl)-2H-pyrido[3,2-b][1,4]oxazin-3(4H)-one Hydrochloride]: the MIC was found to be 0.016 µg/mL.

As for `COc1ccc2ncc(F)c(CCC34CCC(NCc5nc6c(c(C)c5F)OCC(=O)N6)(CC3)CO4)c2n1.Cl` [Example 197, 1-(2-(3-Fluoro-6-methoxy-1,5-naphthyridin-4-yl)ethyl)-N-((7-fluoro-8-methyl-3-oxo-3,4-dihydro-2H-pyrido[3,2-b][1,4]oxazin-6-yl)methyl)-2-oxabicyclo[2.2.2]octan-4-aminium chloride], the MIC worked out at 0.5 µg/mL.
